One assay deals with ALAS1. Nature of the assay: qRT-PCR analysis of ALAS1 expression in SHSY5Y cells. Format: cell-based, human. Particulars: 5 mM ALA for 15 hours vs non-treated. Here is the method:
(§1) (A) Heme content in SHSY5Y cells non-treated (NT) or treated with 5 mM ALA for 15 hours. Values are expressed as pmol heme/mg protein. Data represent mean±SEM, n=3; *=P<0.05. (B, C) qRT-PCR analysis of the expression of ALAS1 (B) and FLVCR1a (C) in SHSY5Y cells non-treated (NT) or treated with 5 mM ALA for 15 hours. Transcript abundance, normalized to beta-actin mRNA expression, is expressed as a fold increase over a calibrator sample. Data represent mean±SEM, n=4. For statistical analyses, an unpaired Student's t-test was used; *p<0.05. (D) qRT-PCR analysis of the expression of ALAS1 in SKCO1 cells untreated (NT) or treated with 5 mM ALA for 24 hours. Transcript abundance, normalized to beta-actin mRNA expression, is expressed as a fold increase over a calibrator sample. Data represent mean±SEM, n=5. […] Band intensities were measured by densitometry and normalized to beta-actin expression. […] (F) Proliferation of SHSY5Y cells assessed by crystal violet staining at different time points (starting from the day after plating, named “day 0”). Treatment with 5 mM ALA occurred at “day 0” and cells were monitored until the end of the experiment without medium refresh. […] (G) SKCO1 cells viability measured by the CellTiter-Fluor Cell Viability Assay (Promega, Madison, WI USA, catalog n°G6080) at different time points, starting from the day after plating (named “day 0”), as a readout of cell proliferation. […]

Another assay relates to FLVCR1a. Nature of the assay: qRT-PCR analysis of FLVCR1a expression in SHSY5Y cells. Format: cell-based, human. Particulars: 5 mM ALA for 15 hours vs non-treated. Here is the method: as §1

On to `Cl.NCC(=O)CCC(=O)O` [5-ALA, 5-Aminolevulinic acid hydrochloride], for which the ALAS1 transcript levels entry in the assay on ALAS1 was “reduced”. Moreover, the FLVCR1a transcript levels result with FLVCR1a is on record as “reduced”.

Values taken from US20240285670A1, “THERAPEUTIC TREATMENT OF TUMORS BY BLOCKING THE HEME SYNTHESIS-EXPORT AXIS” (Università degli Studi di Torino, priority 2021, published 2024).
